This is an account of results in US8329195B2, “Detoxified pneumococcal neuraminidase and uses thereof” (priority 2007, dated 2012).

pIC50: −log10 of the molar value.

The conditions of assay [1]: Matsubura et al. 1999; cited from earlier work.
For the next assay, the target named is PAF-R (Homo sapiens, UniProt P25105). The conditions noted are these: cited from earlier work.
Assay [2] has as its system S. pneumoniae strain EF3030. The assay can be described thus: GLS preincubation of S. pneumoniae strain EF3030 before nasal application to xid mice, CFU in tissues. The assay is classed as in vivo, Streptococcus pneumoniae. The settings on record: four days after nasal application. Here is the method: Aliquots (3×10^7 CFUs) of S. pneumoniae were incubated for 30 minutes with 20 μg asialo-GM1 (a-GM1) or 125 μg of mixed GLSs (MG) prior to nasal application. The ON/E, OBs, brain and NW, NALT and lungs were collected four days later and analyzed for numbers of S. pneumoniae. The 0 value on the Y-axis represents the absence of detectable CFUs. Indicated are the mean+one SE of 5 mice and the P-values were obtained following statistical analysis with the Student's t-test or the Mann-Whitney two sample rank test, as appropriate for the data examined. The data are representative of two separate experiments.
Eight serial, three-fold dilutions were made of tissues and body fluids in sterile Ringer's solution and plated on blood agar plates containing […] gentamicin sulfate. The CFU were enumerated 24 hr after plating and incubation in a candle jar. The results were expressed as CFUs/organ, per NW or per ml of blood.
To block GLS binding sites, 3×10^7 CFU of S. pneumoniae strain EF3030 were incubated for 30 min on ice with either 20 μg asialo-GM1 from human brain or 125 μg of mixed GLSs (18% GM1, 55% GD1a, 15% GD1b, 10% GT1b, 2% other GLSs) from bovine brain (Calbiochem-Novabiochem Corporation, Inc., La Jolla, Calif.). GLSs were dissolved in PBS and extensively mixed a day prior to use. […] Tissues were analyzed for CPUs four days later.

The next assay relates to TIGR4 strain. The assay can be described thus: Attachment of TIGR4 strain to ganglioside-coated ELISA plates. The conditions noted are these: short-term incubation with the TIGR4 strain. In kind it is binding, Streptococcus pneumoniae. On the procedure:
The ability of the TIGR4, and its nanA and nanB mutants to bind to specific gangliosides is measured. The gangliosides used include mixed gangliosides, asialo-GM1, GM1, GD1a, GD1b, GT1 (Calbiochem) and the GM3 ganglioside (Sigma) The GM3 ganglioside lacks the terminal or internal GalNAcβ1-4Gal sequence involved in pneumococcal binding and is used as a negative control. These mixed, mono-, di- or tri-sialic acid containing gangliosides bind readily to ELISA plates. […] Using ganglioside-coated plates, the ability to attach to these plates by wildtype TIGR4 strain, the stable opaque and transparent phase variants of the TIGR4 strain, the nanA, nanB, and nanA/nanB mutant strains is compared. These analyses include short-term incubation (1 hr) and extended incubations (24 hrs) on ganglioside-coated plates, Attached pneumococci are removed from the ganglioside plates by short incubation (10-15 min.) in Todd Hewitt medium containing 0.5% yeast extract followed by repeated pipetting and plating the released bacteria on blood agar plates. Alternatively 41° C. Todd Hewitt broth agar containing 0.5% yeast extract is poured on top of the attached pneumococci and the colonies are counted through the bottom of the plate. Controls include plates with no pneumococci and plates with no gangliosides but with pneumococci.

Sequence of PAF-R (P25105 whole entry, species assumed): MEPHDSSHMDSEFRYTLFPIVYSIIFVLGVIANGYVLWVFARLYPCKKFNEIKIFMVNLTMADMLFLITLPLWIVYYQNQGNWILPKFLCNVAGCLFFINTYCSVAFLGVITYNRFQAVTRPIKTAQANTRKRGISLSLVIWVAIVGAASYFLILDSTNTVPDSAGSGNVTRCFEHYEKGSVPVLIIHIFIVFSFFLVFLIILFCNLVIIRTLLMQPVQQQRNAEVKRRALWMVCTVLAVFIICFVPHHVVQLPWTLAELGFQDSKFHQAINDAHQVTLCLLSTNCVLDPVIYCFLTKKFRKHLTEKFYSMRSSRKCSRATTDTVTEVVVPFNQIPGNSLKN

By pIC50 is commonly meant the IC50 on a negative log10 scale, so that one unit is a factor of ten. For VWRLLAPPFSNRLLP [GM1-binding peptide], in assay [1], the pIC50 is 6.00 and the “affinity for GM1” value is 10^10 M^−1.
As to `CCCCCCCCOc1ccccc1C(=O)Nc1ccc(C(=O)OCC[N+](C)(CC)CC)cc1` [octylonium bromide], the “binding to the PAF-R” value at PAF-R is listed as “binds with high affinity”.
Consider asialo-GM1, for which the “reduced colonization in CNS” value in assay [2] (CNS) amounted to 25 fold. For the same compound, the “reduced colonization in lungs” value in assay [2] (lungs) is on record as 63 fold. Moreover, the “binding of pneumococci to coated plates” value in the assay on TIGR4 strain was “bind and attachment”.
As for GM1, the “binding of pneumococci to coated plates” value in the assay on TIGR4 strain is given as “not”.
As for GM3 [GM-3], the “binding of pneumococci to coated plates” value in the assay on TIGR4 strain is recorded as “not”.
